Laboratory results reported in patent US20180291325A1, “IN VITRO PHARMACOKINETIC-PHARMACODYNAMIC DEVICE” (Merck Sharp & Dohme Corp., priority 2015, published 2018).

Key:
Assay type in all cases: cell-based
[1] = system: HCV genotype 1B (5-2) replicon cell line; experiment: BelloCell in vitro PK-PD PK driver experiments; conditions: adjusted to free fraction, Day 3
From the text: A 4-tube HulaCell system was validated by comparing the results for the Compound PK driver experiments, previously performed in the BelloCell® (data not shown), with the results obtained from dose escalation and dose fractionation studies performed using the HulaCell system.
Calculated PK Driver parameters from HulaCell experiments, compared to those determined in BelloCell experiments are shown in Table 1.
The Hula Cell was successfully used to determine the Maximum efficacy threshold values at Day 3 for Compound in the HCV genotype 1B (5-2) replicon cell line. The PK correlation curves were remarkably similar between the BelloCell® and Hula cell with the only noticeable differences being the prediction of the % T>EC50 and the AUC.

[2] = system: HCV genotype 1B (5-2) replicon cell line; experiment: HulaCell in vitro PK-PD PK driver experiments (dose escalation and dose fractionation; luciferase reporter and RT-PCR viral RNA); conditions: adjusted to free fraction, Day 3
Method: Three QD infusions of the HCV NS3/4 protease inhibitor, (1aR,5S,8S,10R,22aR)-N-[(1R,2S)-1-[(Cyclopropylsulfonamido)carbonyl]-2-ethenylcyclopropyl]-14-methoxy-5-(2-methylpropan-2-yl)-3,6-dioxo-1,1a,3,4,5,6,9,10,18,19,20,21,22,22a-tetradecahydro-8H-7,10-methanocyclopropa[18,19][1,10,3,6]dioxadiazacyclononadecino[11,12-b]quinoxaline-8-carboxamide (“Compound”; See U.S. Pat. No. 7,973,040) were tested in the Hula Cell using the in vitro PK-PD software program and PK was monitored by collecting samples at multiple time point during each infusion. In addition, microcarrier beads were also collected daily to measure changes in viral load by RT-PCR Taqman analysis of cell lysates.
A frozen vial of HCV genotype 1B replicon cells (5-2 cells which contain genotype 1B replicon and a Luciferase reporter) was thawed and seeded into one T-75 flask. At confluency, the flask was trypsinized and cells resuspended to 6×10^6 cells in 9.5 ml DMEM containing 10% FBS and 0.5 mg/ml G418 in a 50 ml LeviTube™. 0.5 ml of collagen-coated microcarrier bead slurry mixture (50% V/V) was added to the 9.5 ml of cells and attachment was performed using BioWiggler™ microcarrier loading program (RPM=60; 1 min mixing; 40 min settle (repeat 6x=4 hr total)). Continuous mixing at 60 rpm was performed overnight. The next morning, 30 ml of fresh media was added to the culture. The microcarriers and attached cells were allowed to settle before removing 30 ml of media with any unattached cells from the LeviTube™. Afterward, 30 ml of fresh media was added back to the LeviTube™ to make the final volume 40 ml. […]
PK/PD samples were collected on Day 0, Day 1, Day 2, and Day 3 directly from the 50 ml LeviTube™ at specified time points. […] Compound concentration in the PK samples was determined by Mass Spectroscopy analysis.
Samples for PD determination (viral load content by RT-PCR) were washed once with 1 ml PBS (w/out Mg^2+ and Ca^2+). […] Viral RNA content of the cells was determined by quantitative PCR. […]

[3] = system: HCV genotype 1B containing 5-2 cells; experiment: plate-based RNA content assay; conditions: Hepatitis C virus; HCV genotype 1B 5-2 cells, plate-based RNA content assay (data not shown)
Method: The EC50 of Compound against HCV genotype 1B containing 5-2 cells was determined to be 0.7 nM in plate-based RNA content assays (data not shown). A dose escalation experiment in which HCV genotype 1B 5-2 cells were dosed QD over three days at 0.3×EC50, 1×EC50, 3×EC50 and 10×EC50 and a dose fractionation experiment in which cells were dosed QD, BID or TID to obtain a constant AUC of ˜16.8 nM were performed using the HulaCell system. Results of the reporter assays for the dose escalation experiment are shown in FIGS. 6A-B. The combined PK results of the dose escalation experiment area shown in FIG. 7.

C=C[C@@H]1C[C@]1(NC(=O)[C@@H]1C[C@@H]2CN1C(=O)[C@H](C(C)(C)C)NC(=O)O[C@@H]1C[C@H]1CCCCCc1nc3ccc(OC)cc3nc1O2)C(=O)NS(=O)(=O)C1CC1 [Compound, (1aR,5S,8S,10R,22aR)-N-[(1R,2S)-1-[(Cyclopropylsulfonamido)carbonyl]-2-ethenylcyclopropyl]-14-methoxy-5-(2-methylpropan-2-yl)-3,6-dioxo-1,1a,3,4,5,6,9,10,18,19,20,21,22,22a-tetradecahydro-8H-7,10-methanocyclopropa[18,19][1,10,3,6]dioxadiazacyclononadecino[11,12-b]quinoxaline-8-carboxamide]
Maximum Efficacy Threshold % T > EC50 [1]: ≥50%
Maximum Efficacy Threshold AUC0-24 [1]: ≥8.4 nM·h
Maximum Efficacy Threshold Cmin [1]: ≥0.11 nM
Maximum Efficacy Threshold % T > EC50 [2]: ≥84%
Maximum Efficacy Threshold AUC0-24 [2]: ≥23.7 nM·h
Maximum Efficacy Threshold Cmin [2]: ≥0.10 nM
EC50 [3]: 0.7 nM
